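Exposure lasted 48 hours, with cells grown in 96-well plates and compounds tested at five concentrations. GI50 is the concentration that inhibits growth by half.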 The source made the active and inactive calls. Rule as the data show it: active = GI50 up to about 1.1 µM and inactive = higher.
Experiments:
Assay in all cases: inhibition of tumour cell growth, NCI panel, 48 h
SW-620 = tested on: SW-620
NCI-H522 = tested on: NCI-H522
NCI-H23 = tested on: NCI-H23
U-251 = tested on: U-251
DU-145 = tested on: DU-145
UACC-257 = tested on: UACC-257
MCF7 = tested on: MCF7
CCRF-CEM = tested on: CCRF-CEM
SK-OV-3 = tested on: SK-OV-3
SF-295 = tested on: SF-295
NCI/ADR-RES = tested on: NCI/ADR-RES
OVCAR-3 = tested on: OVCAR-3
HCC 2998 = tested on: HCC 2998
Malme-3M = tested on: Malme-3M
A498 = tested on: A498
OVCAR-4 = tested on: OVCAR-4
UACC-62 = tested on: UACC-62
TK-10 = tested on: TK-10
HT-29 = tested on: HT-29
Hs-578T = tested on: Hs-578T
MOLT-4 = tested on: MOLT-4
ACHN = tested on: ACHN
RXF 393 = tested on: RXF 393
MDA-N = tested on: MDA-N
786-0 = tested on: 786-0
SK-MEL-28 = tested on: SK-MEL-28
PC-3 = tested on: PC-3
OVCAR-5 = tested on: OVCAR-5
HCT-116 = tested on: HCT-116
NCI-H226 = tested on: NCI-H226
SK-MEL-5 = tested on: SK-MEL-5
UO-31 = tested on: UO-31
SR = tested on: SR
BT-549 = tested on: BT-549
SF-268 = tested on: SF-268
HL-60 = tested on: HL-60
M14 = tested on: M14
COLO 205 = tested on: COLO 205
OVCAR-8 = tested on: OVCAR-8
SN12C = tested on: SN12C
MDA-MB-435 = tested on: MDA-MB-435
A549 = tested on: A549
HOP-62 = tested on: HOP-62
SNB-19 = tested on: SNB-19
IGROV-1 = tested on: IGROV-1
RPMI-8226 = tested on: RPMI-8226
SF-539 = tested on: SF-539
NCI-H460 = tested on: NCI-H460
EKVX = tested on: EKVX
SK-MEL-2 = tested on: SK-MEL-2
KM12 = tested on: KM12
MDA-MB-231 = tested on: MDA-MB-231
CAKI-1 = tested on: CAKI-1
HOP-92 = tested on: HOP-92
HCT-15 = tested on: HCT-15
T47D = tested on: T47D
SNB-75 = tested on: SNB-75
LOX IMVI = tested on: LOX IMVI

COC(=O)C1=C(C(=O)OC)C2OC1c1cc3ccccc3cc12
GI50 (SW-620): 1.96 µM (inactive) | GI50 (NCI-H522): 1.3 µM (inactive) | GI50 (NCI-H23): 5.96 µM (inactive) | GI50 (U-251): 17.3 µM (inactive) | GI50 (DU-145): 7.78 µM (inactive) | GI50 (UACC-257): 6.32 µM (inactive) | GI50 (MCF7): 8.89 µM (inactive) | GI50 (CCRF-CEM): 1.69 µM (inactive) | GI50 (SK-OV-3): 18.8 µM (inactive) | GI50 (SF-295): 18.8 µM (inactive) | GI50 (NCI/ADR-RES): 10.8 µM (inactive) | GI50 (OVCAR-3): 2.88 µM (inactive) | GI50 (HCC 2998): 6.34 µM (inactive) | GI50 (Malme-3M): 2.5 µM (inactive) | GI50 (A498): 21.1 µM (inactive) | GI50 (OVCAR-4): 1.78 µM (inactive) | GI50 (UACC-62): 14.5 µM (inactive) | GI50 (TK-10): 5.2 µM (inactive) | GI50 (HT-29): 6.3 µM (inactive) | GI50 (Hs-578T): 18.2 µM (inactive) | GI50 (MOLT-4): 1.54 µM (inactive) | GI50 (ACHN): 1.63 µM (inactive) | GI50 (RXF 393): 1.77 µM (inactive) | GI50 (MDA-N): 6.62 µM (inactive) | GI50 (786-0): 1.76 µM (inactive) | GI50 (SK-MEL-28): 2 µM (inactive) | GI50 (PC-3): 15.2 µM (inactive) | GI50 (OVCAR-5): 4.88 µM (inactive) | GI50 (HCT-116): 1.74 µM (inactive) | GI50 (NCI-H226): 5.15 µM (inactive) | GI50 (SK-MEL-5): 16.9 µM (inactive) | GI50 (UO-31): 1.54 µM (inactive) | GI50 (SR): 1.88 µM (inactive) | GI50 (BT-549): 5.47 µM (inactive) | GI50 (SF-268): 18.3 µM (inactive) | GI50 (HL-60): 0.0841 µM (active) | GI50 (M14): 2.1 µM (inactive) | GI50 (COLO 205): 1.82 µM (inactive) | GI50 (OVCAR-8): 4.49 µM (inactive) | GI50 (SN12C): 16.4 µM (inactive) | GI50 (MDA-MB-435): 7.38 µM (inactive) | GI50 (A549): 18.7 µM (inactive) | GI50 (HOP-62): 17.6 µM (inactive) | GI50 (SNB-19): 18.7 µM (inactive) | GI50 (IGROV-1): 5.01 µM (inactive) | GI50 (RPMI-8226): 2.33 µM (inactive) | GI50 (SF-539): 6.27 µM (inactive) | GI50 (NCI-H460): 22.2 µM (inactive) | GI50 (EKVX): 6.07 µM (inactive) | GI50 (SK-MEL-2): 15.4 µM (inactive) | GI50 (KM12): 23.7 µM (inactive) | GI50 (MDA-MB-231): 17.7 µM (inactive) | GI50 (CAKI-1): 2.05 µM (inactive) | GI50 (HOP-92): 1.69 µM (inactive) | GI50 (HCT-15): 2.18 µM | GI50 (T47D): 2.61 µM (inactive) | GI50 (SNB-75): 23.3 µM (inactive) | GI50 (LOX IMVI): 15.2 µM (inactive)

From ChEMBL document CHEMBL1201862, “PubChem BioAssay data set” (2004)
